Measured values taken from patent US20210205365A1, “Chimeric Growth Factor Receptors” (Instil Bio (UK) Ltd., priority 2018, published 2021).

B1: TpoR.ITAM1: SEQ ID NO: 10; TpoR fused to ITAM1 cytoplasmic domain (protein)
chain: MPSWALFMVTSCLLLAPQNLAQVSSQDVSLLASDSEPLKCFSRTFEDLTCFWDEEEAAPSGTYQLLYAYPREKPRACPLSSQSMPHFGTRYVCQFPDQEEVRLFFPLHLWVKNVFLNQTRTQRVLFVDSVGLPAPPSIIKAMGGSQPGELQISWEEPAPEISDFLRYELRYGPRDPKNSTGPTVIQLIATETCCPALQRPHSASALDQSPCAQPTMPWQDGPKQTSPSREASALTAEGGSCLISGLQPGNSYWLQLRSEPDGISLGGSWGSWSLPVTVDLPGDAVALGLQCFTLDLKNVTCQWQQQDHASSQGFFYHSRARCCPRDRYPIWENCEEEEKTNPGLQTPQFSRCHFKSRNDSIIHILVEVTTAPGTVHSYLGSPFWIHQAVRLPTPNLHWREISSGHLELEWQHPSSWAAQETCYQLRYTGEGHQDWKVLEPPLGARGGTLELRPRSRYRLQLRARLNGPTYQGPWSSWSDPTRVETATETAWISLVTALHLVLGLSAVLGLLLLRWQFPAHYRRLRHALWPSLPDLHRVLGQYLRDTAALSPPKATVSDTCEEVEPSLLEILPKSSERTPLPLCSSQAQMDYRRLQPSCLGTMPLSVCPPMAESGSCCTTHIANHSYLPLSYWQQPRVKFSRSADAPAYQQGQNQLYNELNLGRREEYDVLDKRRGR
modifications: TpoR-ITAM1; MISC_FEATURE (1)..(491): TpoR Extracellular Domain; MISC_FEATURE (492)..(513): TpoR Transmembrane Domain; MISC_FEATURE (514)..(635): TpoR Cytoplasmic Domain; MISC_FEATURE (636)..(676): ITAM1 Cytoplasmic Domain
B2: IL-12: IL-12 as a control (protein, UniProt P29459 23-219; P29460 23-328, looked up)
Interleukin-12 subunit alpha: RNLPVATPDPGMFPCLHHSQNLLRAVSNMLQKARQTLEFYPCTSEEIDHEDITKDKTSTVEACLPLELTKNESCLNSRETSFITNGSCLASRKTSFMMALCLSSIYEDLKMYQVEFKTMNAKLLMDPKRQIFLDQNMLAVIDELMQALNFNSETVPQKSSLEEPDFYKTKIKLCILLHAFRIRAVTIDRVMSYLNAS
Interleukin-12 subunit beta: IWELKKDVYVVELDWYPDAPGEMVVLTCDTPEEDGITWTLDQSSEVLGSGKTLTIQVKEFGDAGQYTCHKGGEVLSHSLLLLHKKEDGIWSTDILKDQKEPKNKTFLRCEAKNYSGRFTCWWLTTISTDLTFSVKSSRGSSDPQGVTCGAATLSAERVRGDNKEYEYSVECQEDSACPAAEESLPIEVMVDAVHKLKYENYTSSFFIRDIIKPDPPKNLQLKPLKNSRQVEVSWEYPDTWSTPHSYFSLTFCVQVQGKSKREKKDRVFTDKTSATVICRKNASISVRAQDRYYSSSWSEWASVPCS
B3: TpoR.Δ60: SEQ ID NO: 2; TpoR with C-terminal truncation of the cytoplasmic domain (protein)
chain: MPSWALFMVTSCLLLAPQNLAQVSSQDVSLLASDSEPLKCFSRTFEDLTCFWDEEEAAPSGTYQLLYAYPREKPRACPLSSQSMPHFGTRYVCQFPDQEEVRLFFPLHLWVKNVFLNQTRTQRVLFVDSVGLPAPPSIIKAMGGSQPGELQISWEEPAPEISDFLRYELRYGPRDPKNSTGPTVIQLIATETCCPALQRPHSASALDQSPCAQPTMPWQDGPKQTSPSREASALTAEGGSCLISGLQPGNSYWLQLRSEPDGISLGGSWGSWSLPVTVDLPGDAVALGLQCFTLDLKNVTCQWQQQDHASSQGFFYHSRARCCPRDRYPIWENCEEEEKTNPGLQTPQFSRCHFKSRNDSIIHILVEVTTAPGTVHSYLGSPFWIHQAVRLPTPNLHWREISSGHLELEWQHPSSWAAQETCYQLRYTGEGHQDWKVLEPPLGARGGTLELRPRSRYRLQLRARLNGPTYQGPWSSWSDPTRVETATETAWISLVTALHLVLGLSAVLGLLLLRWQFPAHYRRLRHALWPSLPDLHRVLGQYLRDTAALSPPKATVSDTCEEVEPSLLEILPKSSERTPL
modifications: TpoR.delta60; MISC_FEATURE (1)..(491): TpoR Extracellular Domain; MISC_FEATURE (492)..(513): TpoR Transmembrane Domain; MISC_FEATURE (514)..(580): TpoR Cytoplasmic Domain with C-terminal Truncation

Tests used:
phospho-STAT5 = experiment: Induction of pSTAT5 in CrGFR expressing T-cells; assay type: cell-based, human; conditions: CrGFR expressing T-cells from 4 donors treated for four hours
Procedure: FIG. 15—Induction of pSTAT by chimeric recombinant growth factor receptors. Primary human T-cells were isolated and transduced with the indicated CrGFR. Cells were enriched for CrGFR expression using Miltenyi MACS technology and expanded via polyclonal stimulation. The enriched cells were stimulated for 4 h with either media alone (RPMI), IL2, IL12, Tpo or Eltrombopag (Elt) before methanol fixation and intracellular staining with antibodies towards phospho-STAT5.
Finally, Applicants validated the signalling potential of the novel CrGFR by conducting phospho STAT analysis upon treatment of CrGFR expressing T-cells with media, cytokine or drug. To this end T-cells from 4 donors were transduced with either the wt TpoR, TpoR. CD40 or TpoR.IL2rγ, enriched for CrGFR expression using paramagnetic bead selection protocols and then expanded using polyclonal stimulation. The cells were treated for four hours with media alone (RPMI), IL-2, Tpo or Eltrombopag (Elt) before methanol fixation, permeabilization and analysis using pSTAT specific antibodies. STAT molecules are the key drivers of cell signalling upon cytokine activation of cells, pSTAT5 in particular is key to IL-2 activity.

primary human T-cells [1] = experiment: Eltrombopag and IL-2 on CrGFR sorted (CD110+) primary human T-cells, up to 7 days; assay type: cell-based; conditions: second donor (FIG. 12)
Procedure: FIG. 10—Analysis of Eltrombopag and IL-2 on CrGFR sorted primary human T-cells from Donor 4. Primary human T-cells from donor 4 were transduced with the WT TpoR or variant CrGFR, and enriched for expression by Miltenyi MACS technology selected for and incubated in the presence of IL2 or Eltrombopag. Cells were removed at time points up to 7 days and the number of cells expressing the receptor assessed using PE conjugated anti-CD110 antibodies, DRAQ7 viability dye and a MACSQuant analyser.
FIG. 11—Analysis of Eltrombopag and IL-2 on CrGFR sorted primary human T-cells from Donor 5. Primary human T-cells from donor 5 were transduced with the WT TpoR or variant CrGFR, and enriched for expression by Miltenyi MACS technology selected for and incubated in the presence of IL2 or Eltrombopag. Cells were removed at time points up to 7 days and the number of cells expressing the receptor assessed using PE conjugated anti-CD110 antibodies, DRAQ7 viability dye and a MACSQuant analyser.
FIG. 12—Analysis of Eltrombopag and IL-2 on CrGFR sorted primary human T-cells from Donor 6. Primary human T-cells from donor 6 were transduced with the WT TpoR or variant CrGFR, and enriched for expression by Miltenyi MACS technology selected for and incubated in the presence of IL2 or Eltrombopag. Cells were removed at time points up to 7 days and the number of cells expressing the receptor assessed using PE conjugated anti-CD110 antibodies, DRAQ7 viability dye and a MACSQuant analyser.
Paramagnetic bead sorts were conducted as per the manufacturers' instructions using either anti-PE microbeads (Miltenyi Biotec or StemCell Technologies), or T-cell isolation beads (17951: StemCell Technologies).
Next Applicants repeated the experiment but sorted the CrGFR+ cells using CD110+ selection by paramagnetic bead selection using the receptors identified from the first round of selections (FIGS. 10, 11 and 12). Applicants observed enhanced survival of T-cells engrafted with the majority of the CrGFR in all three donors. In particular Applicants saw expansion of WT-TpoR, TpOR.CD40, TpOR.IL2rγ and TpoR.LMP1-cyto cells in the second donor (FIG. 12) above that with media alone.

primary human T-cells [2] = experiment: Eltrombopag and IL-2 on CrGFR transduced primary human T-cells, up to 21 days; assay type: cell-based; conditions: after 21 days, x3 donors, Eltrombopag
Procedure: FIGS. 6A-6B—Analysis of Eltrombopag and IL-2 on primary human T-cells from Donor 1. Primary human T-cells from donor 1 were transduced with the WT TpoR or variant CrGFR and incubated in the presence of IL2 or Eltrombopag. Cells were removed at time points up to 21 days and the proportion of cells expressing the receptor assessed using PE conjugated anti-CD110 antibodies and a MACSQuant analyser.
FIGS. 7A-7B—Analysis of Eltrombopag and IL-2 on primary human T-cells from Donor 2. Primary human T-cells from donor 2 were transduced with the WT TpoR or variant CrGFR and incubated in the presence of IL2 or Eltrombopag. Cells were removed at time points up to 21 days and the proportion of cells expressing the receptor assessed using PE conjugated anti-CD110 antibodies and a MACSQuant analyser.
FIGS. 8A-8B—Analysis of Eltrombopag and IL-2 on primary human T-cells from Donor 3. Primary human T-cells from donor 3 were transduced with the WT TpoR or variant CrGFR and incubated in the presence of IL2 or Eltrombopag. Cells were removed at time points up to 21 days and the proportion of cells expressing the receptor assessed using PE conjugated anti-CD110 antibodies and a MACSQuant analyser.
FIGS. 9A-9B—Selection of optimal CrGFRs for next round of analysis. Flow cytometry plots showing expression of CrGFRs in ×3 donor primary human T-cells after 21 days incubation in Eltrombopag. The receptors TpoR.CD40, TpoR.IL2rγ, TpoR.ITAM1, TpoR.A60, TpoR.LMP1-cyto and TpoR.TpoR-cyto.LMP1-cyto were chosen for future comparison with the wt TpoR.
Peripheral blood mononuclear cells were isolated from normal healthy donors before activation for 24 hours with T-cell activation and expansion beads (Invitrogen) according to the manufacturer's instructions before addition of lentiviral supernatants.
Following expansion cells were washed excessively to remove any exogenous IL2 and plated into 96-well U-bottom plates. Cells were supplemented with IL2 (Proleukin) or Eltrombopag (Stratech Scientific, Suffolk, UK). At various time points thereafter cells were either stained with a 1:400 dilution of eFlor-450 fixable viability dye (eBioscience, UK) and counted directly from the wells using a MACSQuant Cytometer, or were stained with DRAQ7 viability dye plus phycoerythrin conjugated anti-CD110 antibodies (Miltenyi Biotec, UK) and analysed using a MACSQuant cytomter. Cell viability and/or transduction level was then analysed using MACSQuantify software (Miltenyi Biotec, UK).
Next Applicants took these receptors and expressed them in primary human T-cells and exposed these cells to IL-2 or Eltrombopag. Three donor primary human T-cell populations were isolated from buffy coats and transduced with the indicated lentiviral constructs in the presence of CD3/CD28 Dynabeads. Following expansion the cells were incubated with IL-2 or Eltrombopag. Applicants saw an increase in expansion/survival of T-cells with some of the receptors in some of the donors. […] This narrowed Applicants' panel of receptors to analyse further to: TpoR.CD40, TpOR.IL2rγ, TpoR.ITAM1, TpOR.LMP1-cyt, and TpoR.TpoR-cyt-LMP1-cyt.

Row | Molecule | induction of pSTAT5 by cytokine or drug (phospho-STAT5) | expansion of CrGFR cells above that with media alone (primary human T-cells [1]) | proportion of viable cells with a distinct population of CD110+ cells (primary human T-cells [2])
1 | Tpo: thrombopoietin (Tpo), native ligand of TpoR | showed induction of STAT5 activity | – | –
2 | TpoR.LMP1-cyt: SEQ ID NO: 12; TpoR EC and TM domain fused to LMP-1 cytoplasmic domain | – | expansion | good proportion of viable cells with a distinct population of CD110+ cells
3 | TpoR.TpoR-cyt-LMP1-cyt: SEQ ID NO: 11; TpoR with TpoR cytoplasmic domain fused to LMP-1 cytoplasmic domain | – | – | good proportion of viable cells with a distinct population of CD110+ cells
4 | B1 | – | – | good proportion of viable cells with a distinct population of CD110+ cells
5 | B2 | unable to induce STAT5 activation | – | –
6 | B3 | – | – | looked good
